Laboratory results as given in patent US20250197409A1, “BIFUNCTIONAL COMPOUND AND PHARMACEUTICAL COMPOSITION COMPRISING THE BIFUNCTIONAL COMPOUND, AND METHOD FOR TREATING ANDROGEN RECEPTOR RELATED DISEASE BY USING THE SAME” (ANHORN MEDICINES CO., LTD., priority 2022, published 2025).
Like-named read-outs stand apart in the source and are kept apart here.

Target: T1, androgen receptor (Homo sapiens, UniProt P10275, T878A)
T1 construct: host or cells: LNCaP.FGC
Test: Androgen receptor degradation assay using Western blot analysis
Format: cell-based
Method in brief: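 LNCaP.FGC cells (2×10^5/well) treated with 10-fold serial dilutions in RPMI from 100 nM stock; untreated cells as negative control. AR Western signal normalized to GAPDH, expressed as % remaining versus untreated (100%). DC50 derived from calibration curve of serial dilutions.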

[1] = 24 h, read-out: Androgen Receptor Remaining (%), LNCaP.FGC cells, 100 nM, 24 hr, normalized to GAPDH, untreated cells = 100%
[2] = read-out: AR DC50 (concentration needed for 50% AR degradation); LNCaP.FGC cells, serial 10x dilutions from 100 nM
[3] = LNCaP.FGC cells, serial 10x dilutions from 100 nM; read-out: AR DC50 (concentration needed for 50% AR degradation)

T1 sequence (P10275 whole entry T878A): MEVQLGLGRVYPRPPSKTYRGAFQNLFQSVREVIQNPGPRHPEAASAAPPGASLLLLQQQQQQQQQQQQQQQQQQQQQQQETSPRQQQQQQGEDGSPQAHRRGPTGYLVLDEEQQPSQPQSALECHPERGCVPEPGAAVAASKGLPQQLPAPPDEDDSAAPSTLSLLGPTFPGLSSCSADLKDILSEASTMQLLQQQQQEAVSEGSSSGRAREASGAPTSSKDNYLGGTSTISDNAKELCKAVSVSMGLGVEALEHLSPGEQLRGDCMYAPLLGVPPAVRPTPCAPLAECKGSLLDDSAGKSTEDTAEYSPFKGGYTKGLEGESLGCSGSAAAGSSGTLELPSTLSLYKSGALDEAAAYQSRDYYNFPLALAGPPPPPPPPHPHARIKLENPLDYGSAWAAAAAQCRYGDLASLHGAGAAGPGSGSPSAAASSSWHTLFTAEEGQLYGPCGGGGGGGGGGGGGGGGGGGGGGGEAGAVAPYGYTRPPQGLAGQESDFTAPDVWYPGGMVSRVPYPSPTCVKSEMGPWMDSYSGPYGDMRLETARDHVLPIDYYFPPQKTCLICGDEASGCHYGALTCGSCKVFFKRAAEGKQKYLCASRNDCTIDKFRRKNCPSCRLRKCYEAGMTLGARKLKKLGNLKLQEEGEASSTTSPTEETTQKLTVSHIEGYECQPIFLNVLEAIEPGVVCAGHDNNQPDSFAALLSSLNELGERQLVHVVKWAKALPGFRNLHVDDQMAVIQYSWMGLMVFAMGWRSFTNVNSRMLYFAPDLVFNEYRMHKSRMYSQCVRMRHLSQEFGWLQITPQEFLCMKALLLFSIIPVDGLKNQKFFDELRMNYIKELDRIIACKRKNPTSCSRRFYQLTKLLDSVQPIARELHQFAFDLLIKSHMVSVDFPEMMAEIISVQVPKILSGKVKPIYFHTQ
T1 sequence (Q96SW2 whole entry partner): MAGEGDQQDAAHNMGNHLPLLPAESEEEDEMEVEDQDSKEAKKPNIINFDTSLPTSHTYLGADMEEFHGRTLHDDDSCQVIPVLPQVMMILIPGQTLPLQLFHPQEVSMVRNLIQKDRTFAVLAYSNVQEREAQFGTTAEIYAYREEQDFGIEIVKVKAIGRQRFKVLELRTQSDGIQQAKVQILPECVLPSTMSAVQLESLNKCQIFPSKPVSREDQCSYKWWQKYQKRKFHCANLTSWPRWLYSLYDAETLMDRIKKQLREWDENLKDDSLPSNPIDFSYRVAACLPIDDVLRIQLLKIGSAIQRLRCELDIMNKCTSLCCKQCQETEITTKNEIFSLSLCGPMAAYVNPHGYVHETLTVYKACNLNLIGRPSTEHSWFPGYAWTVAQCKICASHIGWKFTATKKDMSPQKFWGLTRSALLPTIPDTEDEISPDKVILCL

Compound | remaining activity at 0.1 µM [1] [%] | DC50 [2] [nM] | remaining activity at 0.1 µM (24 h, LNCaP.FGC cells, 100 nM, 24 hr, normalized to GAPDH, untreated cells = 100%; read-out: Androgen Receptor Remaining (%)) [%] | DC50 [3] [nM]
CCn1c2c(c3ccc(OCCCN4CCC5(CCN(c6ccc(C(=O)N[C@H]7CC[C@H](Oc8ccc(C#N)c(Cl)c8)CC7)nn6)C5)C4)cc31)C(=O)N(C1CCC(=O)NC1=O)C2=O (stereo partly shown) [Compound 132] | 7 | 10 to 25 | – | –
CCn1c2c(c3ccc(OCCN4CCC5(CCN(c6ccc(C(=O)N[C@H]7CC[C@H](Oc8ccc(C#N)c(Cl)c8)CC7)nn6)C5)C4)cc31)C(=O)N(C1CCC(=O)NC1=O)C2=O (stereo partly shown) [Compound 133] | 1 | 10 to 25 | – | –
CCn1c2c(c3ccc(OCC(=O)N4CCC5(CCN(c6ccc(C(=O)N[C@H]7CC[C@H](Oc8ccc(C#N)c(Cl)c8)CC7)nn6)C5)C4)cc31)C(=O)N(C1CCC(=O)N(CO)C1=O)C2=O (stereo partly shown) [Compound 135] | 17 | 25 to 100 | – | –
CCn1c2c(c3ccc(OCC(=O)N4CCC5(CCN(c6ccc(C(=O)N[C@H]7CC[C@H](Oc8ccc(C#N)c(Cl)c8)CC7)nn6)C5)C4)cc31)C(=O)N(C1CCC(=O)NC1=O)C2=O (stereo partly shown) [Compound 136] | 17 | 25 to 100 | – | –
CCn1c2c(c3ccc(OCCOCC4CCN(c5ccc(C(=O)N[C@H]6CC[C@H](N(C)c7ccc(C#N)c(Cl)c7)CC6)nn5)CC4)cc31)C(=O)N(C1CCC(=O)NC1=O)C2=O (stereo partly shown) [Compound 137] | 1 | 25 to 100 | – | –
CCn1c2c(c3ccc(OCCOCC4CCN(c5ccc(C(=O)N[C@H]6CC[C@H](Oc7ccc(C#N)c(Cl)c7)CC6)nn5)CC4)cc31)C(=O)N(C1CCC(=O)NC1=O)C2=O (stereo partly shown) [Compound 138] | 39 | 25 to 100 | – | –
CCn1c2c(c3cc(OCCN4CCC(C#Cc5ccc(C(=O)NC6C(C)(C)C(Oc7ccc(C#N)c(Cl)c7)C6(C)C)cc5)CC4)ccc31)C(=O)N(C1CCC(=O)NC1=O)C2=O (stereo not shown) [Compound 139] | 52 | 25 to 100 | – | –
CCn1c2c(c3ccc(OCCC4CCN(c5ccc(C(=O)N[C@H]6CC[C@H](N(C)c7ccc(C#N)c(Cl)c7)CC6)nn5)CC4)cc31)C(=O)N(C1CCC(=O)NC1=O)C2=O (stereo partly shown) [Compound 140] | 32 | 25 to 100 | – | –
CCn1c2c(c3ccc(OCC(=O)NCC4CCN(c5ccc(C(=O)N[C@H]6CC[C@H](N(C)c7ccc(C#N)c(Cl)c7)CC6)nn5)CC4)cc31)C(=O)N(C1CCC(=O)C(CO)C1=O)C2=O (stereo partly shown) [Compound 141] | 49 | 25 to 100 | – | –
CCn1c2c(c3ccc(OCC(=O)NCC4CCN(c5ccc(C(=O)N[C@H]6CC[C@H](N(C)c7ccc(C#N)c(Cl)c7)CC6)nn5)CC4)cc31)C(=O)N(C1CCC(=O)NC1=O)C2=O (stereo partly shown) [Compound 142] | 49 | 25 to 100 | – | –
CCn1c2c(c3ccc(OC(=O)NC4CCN(c5ccc(C(=O)N[C@H]6CC[C@H](N(C)c7ccc(C#N)c(Cl)c7)CC6)nn5)CC4)cc31)C(=O)N(C1CCC(=O)NC1=O)C2=O (stereo partly shown) [Compound 144] | 86 | – | – | –
CCn1c2c(c3ccc(OCC(=O)N4CC5(CCN(c6ccc(C(=O)N[C@H]7CC[C@H](N(C)c8ccc(C#N)c(Cl)c8)CC7)nn6)C5)C4)cc31)C(=O)N(C1CCC(=O)N(CO)C1=O)C2=O (stereo partly shown) [Compound 145] | 62 | – | – | –
CCn1c2c(c3ccc(OCC(=O)N4CC5(CCN(c6ccc(C(=O)N[C@H]7CC[C@H](N(C)c8ccc(C#N)c(Cl)c8)CC7)nn6)C5)C4)cc31)C(=O)N(C1CCC(=O)NC1=O)C2=O (stereo partly shown) [Compound 146] | 62 | – | – | –
CCn1c2c(c3ccc(OCCOC4CC5(CCN(c6ccc(C(=O)N[C@H]7CC[C@H](Oc8ccc(C#N)c(Cl)c8)CC7)nn6)CC5)C4)cc31)C(=O)N(C1CCC(=O)NC1=O)C2=O (stereo partly shown) [Compound 147] | 46 | 10 to 25 | – | –
CCn1c2c(c3ccc(OCCOC4CC5(CCN(c6ccc(C(=O)N[C@H]7CC[C@H](N(C)c8ccc(C#N)c(Cl)c8)CC7)nn6)CC5)C4)cc31)C(=O)N(C1CCC(=O)NC1=O)C2=O (stereo partly shown) [Compound 148] | 30 | 10 to 25 | – | –
CCn1c2c(c3ccc(OCCCCN4CCN(c5ccc(C(=O)N[C@H]6CC[C@H](Oc7ccc(C#N)c(Cl)c7)CC6)nn5)CC4=O)cc31)C(=O)N(C1CCC(=O)NC1=O)C2=O (stereo partly shown) [Compound 149] | 11 | – | – | –
CCn1c2c(c3ccc(OCCCCN4CCN(c5ccc(C(=O)N[C@H]6CC[C@H](N(C)c7ccc(C#N)c(Cl)c7)CC6)nn5)CC4=O)cc31)C(=O)N(C1CCC(=O)NC1=O)C2=O (stereo partly shown) [Compound 150] | 40 | – | – | –
CCn1c2c(c3ccc(OCCCN4CCN(c5ccc(C(=O)N[C@H]6CC[C@H](Oc7ccc(C#N)c(Cl)c7)CC6)nn5)CC4=O)cc31)C(=O)N(C1CCC(=O)NC1=O)C2=O (stereo partly shown) [Compound 151] | 57 | – | – | –
CCn1c2c(c3ccc(OCCOC4CCC5(CC4)CN(c4ccc(C(=O)N[C@H]6CC[C@H](Oc7ccc(C#N)c(Cl)c7)CC6)nn4)C5)cc31)C(=O)N(C1CCC(=O)NC1=O)C2=O (stereo partly shown) [Compound 152] | 45 | 25 to 100 | – | –

Compound | remaining activity at 0.1 µM [1] [%] | DC50 [2] [nM] | remaining activity at 0.1 µM (24 h, LNCaP.FGC cells, 100 nM, 24 hr, normalized to GAPDH, untreated cells = 100%; read-out: Androgen Receptor Remaining (%)) [%] | DC50 [3] [nM]
CCn1c2c(c3ccc(OCCOC4CCN(c5ccc(C(=O)N[C@H]6CC[C@H](Oc7ccc(C#N)c(Cl)c7)CC6)nn5)CC4)cc31)C(=O)N(C1CCC(=O)NC1=O)C2=O (stereo partly shown) [Compound 153] | 109 | 10 to 25 | – | –
CCn1c2c(c3ccc(OCCOC4CCN(c5ccc(C(=O)N[C@H]6CC[C@H](N(C)c7ccc(C#N)c(Cl)c7)CC6)nn5)CC4)cc31)C(=O)N(C1CCC(=O)NC1=O)C2=O (stereo partly shown) [Compound 154] | 33 | 10 to 25 | – | –
CCn1c2c(c3ccc(OCCCOC4CCN(c5ccc(C(=O)N[C@H]6CC[C@H](N(C)c7ccc(C#N)c(Cl)c7)CC6)nn5)CC4)cc31)C(=O)N(C1CCC(=O)NC1=O)C2=O (stereo partly shown) [Compound 155] | 19 | 10 to 25 | – | –
CCn1c2c(c3ccc(OCCOC4CCC5(CC4)CN(c4ccc(C(=O)N[C@H]6CC[C@H](N(C)c7ccc(C#N)c(Cl)c7)CC6)nn4)C5)cc31)C(=O)N(C1CCC(=O)NC1=O)C2=O (stereo partly shown) [Compound 156] | 37 | 25 to 100 | – | –
CCn1c2c(c3ccc(OCCCN4CCC(C5CCN(c6ccc(C(=O)N[C@H]7CC[C@H](Oc8ccc(C#N)c(Cl)c8)CC7)nn6)CC5)CC4)cc31)C(=O)N(C1CCC(=O)NC1=O)C2=O (stereo partly shown) [Compound 157] | 18 | 10 to 25 | – | –
CCn1c2c(c3ccc(OCCN4CCC(C5CCN(c6ccc(C(=O)N[C@H]7CC[C@H](Oc8ccc(C#N)c(Cl)c8)CC7)nn6)CC5)CC4)cc31)C(=O)N(C1CCC(=O)NC1=O)C2=O (stereo partly shown) [Compound 158] | 13 | 10 to 25 | – | –
CCn1c2c(c3ccc(OCCCOC4CCN(c5ccc(C(=O)N[C@H]6CC[C@H](Oc7ccc(C#N)c(Cl)c7)CC6)nn5)CC4)cc31)C(=O)N(C1CCC(=O)NC1=O)C2=O (stereo partly shown) [Compound 159] | 8 | 25 to 100 | – | –
CCn1c2c(c3ccc(OCCCN4CCC5(C4)CN(c4ccc(C(=O)N[C@H]6CC[C@H](Oc7ccc(C#N)c(Cl)c7)CC6)nn4)C5)cc31)C(=O)N(C1CCC(=O)NC1=O)C2=O (stereo partly shown) [Compound 160] | 17 | < 10 | – | –
CCn1c2c(c3ccc(OCCN4CCC5(C4)CN(c4ccc(C(=O)N[C@H]6CC[C@H](Oc7ccc(C#N)c(Cl)c7)CC6)nn4)C5)cc31)C(=O)N(C1CCC(=O)NC1=O)C2=O (stereo partly shown) [Compound 161] | 31 | 10 to 25 | – | –
CCn1c2c(c3ccc(OCCOC4CC5(CCN(c6ccc(C(=O)N[C@H]7CC[C@H](Oc8ccc(C#N)c(Cl)c8)CC7)nn6)C5)C4)cc31)C(=O)N(C1CCC(=O)NC1=O)C2=O (stereo partly shown) [Compound 162] | 29 | 25 to 100 | – | –
CCn1c2c(c3ccc(OCCCC4CCN(c5ccc(C(=O)N[C@H]6CC[C@H](Oc7ccc(C#N)c(Cl)c7)CC6)nn5)CC4)cc31)C(=O)N(C1CCC(=O)NC1=O)C2=O (stereo partly shown) [Compound 163] | 41 | – | – | –
CCn1c2c(c3ccc(OCCOC4CC5(CCN(c6ccc(C(=O)N[C@H]7CC[C@H](N(C)c8ccc(C#N)c(Cl)c8)CC7)nn6)C5)C4)cc31)C(=O)N(C1CCC(=O)NC1=O)C2=O (stereo partly shown) [Compound 164] | 31 | 10 to 25 | – | –
CCn1c2c(c3ccc(OCCCC4CCN(c5ccc(C(=O)N[C@H]6CC[C@H](N(C)c7ccc(C#N)c(Cl)c7)CC6)nn5)CC4)cc31)C(=O)N(C1CCC(=O)NC1=O)C2=O (stereo partly shown) [Compound 165] | 77 | – | – | –
CCn1c2c(c3ccc(OCCN4CCC(C5CCN(c6ccc(C(=O)N[C@H]7CC[C@H](N(C)c8ccc(C#N)c(Cl)c8)CC7)nn6)CC5)CC4)cc31)C(=O)N(C1CCC(=O)NC1=O)C2=O (stereo partly shown) [Compound 166] | 47 | – | – | –
CCn1c2c(c3ccc(OCCCN4CCC(C5CCN(c6ccc(C(=O)N[C@H]7CC[C@H](N(C)c8ccc(C#N)c(Cl)c8)CC7)nn6)CC5)CC4)cc31)C(=O)N(C1CCC(=O)NC1=O)C2=O (stereo partly shown) [Compound 167] | 78 | – | – | –
Cn1c2c(c3ccc(OCCOC4CCN(c5ccc(C(=O)N[C@H]6CC[C@H](Oc7ccc(C#N)c(Cl)c7)CC6)nn5)CC4)cc31)C(=O)N(C1CCC(=O)NC1=O)C2=O (stereo partly shown) [Compound 168] | – | – | 20 | 10 to 25
Cn1c2c(c3ccc(OCCOC4CCN(c5ccc(C(=O)N[C@H]6CC[C@H](N(C)c7ccc(C#N)c(Cl)c7)CC6)nn5)CC4)cc31)C(=O)N(C1CCC(=O)NC1=O)C2=O (stereo partly shown) [Compound 169] | 27 | 10 to 25 | – | –
Cn1c2c(c3ccc(OCCOC4CC5(CCN(c6ccc(C(=O)N[C@H]7CC[C@H](Oc8ccc(C#N)c(Cl)c8)CC7)nn6)CC5)C4)cc31)C(=O)N(C1CCC(=O)NC1=O)C2=O (stereo partly shown) [Compound 170] | – | – | – | 25 to 100
Cn1c2c(c3ccc(OCCOC4CC5(CCN(c6ccc(C(=O)N[C@H]7CC[C@H](N(C)c8ccc(C#N)c(Cl)c8)CC7)nn6)CC5)C4)cc31)C(=O)N(C1CCC(=O)NC1=O)C2=O (stereo partly shown) [Compound 171] | – | 25 to 100 | – | –
